Test results reported in patent US20180296630A1, “METHODS AND COMPOSITIONS FOR PREVENTING OR TREATING OPHTHALMIC CONDITIONS” (Stealth BioTherapeutics Corp, priority 2012, published 2018).

Columns and labels:
[1] = test system: human retinal epithelial cells (HREC); experiment: Intracellular ROS in HRECs exposed to 30 mM glucose (dihydroethidium); format: cell-based; details: 100 nM, 24 h and 48 h
Description: FIGS. 2A-2F is a series of micrographs showing co-treatment with D-Arg-2′,6′-Dmt-Lys-Phe-NH2 (SS-31) reduced intracellular reactive oxygen species (ROS) in HRECs exposed to 30 mM glucose for 24 h and 48 h. Intracellular ROS was measured using dihydroethidium. 2A, 2D normal culture media; 2B, 2E 30 mM glucose; and 2C, 2F 30 mM glucose+D-Arg-2′,6′-Dmt-Lys-Phe-NH2 (SS-31) (100 nM) at 24 and 48 h, respectively.
The survival of HRECs in high glucose co-treated with D-Arg-2′,6′-Dmt-Lys-Phe-NH2 was tested at 24 h and 48 h.

[2] = test system: trabecular meshwork cells from POAG patients (GTM); experiment: LDH cytotoxicity assay, GTM cells; format: cell-based, human
Source text: In this Example, the effects of the aromatic-cationic peptides of the invention were compared between trabecular meshwork cells from POAG patients (GTM) and trabecular meshwork cells from non-diseased individuals (HTM). Methods useful in the studies of the present invention have been described. See generally, He Y, Ge J, Tombran-Tink J., Mitochondrial defects and dysfunction in calcium regulation in glaucomatous trabecular meshwork cells. Invest Ophthalmol Vis Sci. 2008, 49(11):4912-22; He Y, Leung K W, Zhang Y H, Duan S, Zhong X F, Jiang R Z, Peng Z, Tombran-Tink J, Ge J. Mitochondrial complex I defect induces ROS release and degeneration in trabecular meshwork cells of POAG patients: protection by antioxidants. Invest Ophthalmol Vis Sci. 2008, 49(4):1447-58. […]
To assess whether D-Arg-2′,6′-Dmt-Lys-Phe-NH2 had cytotoxic effects of HTM or GTM cells, various concentrations of D-Arg-2′,6′-Dmt-Lys-Phe-NH2 were administered to cells and the cytotoxicity was measured using an LDH assay. […] The assay quantitatively measures the stable, cytosolic, lactate dehydrogenase (LDH) enzyme, which is released from damaged cells. The released LDH is measured with a coupled enzymatic reaction that results in the conversion of a tetrazolium salt (iodonitrotetrazolium (INT)) into a red color formazan by diaphorase. […] The LDH activity is determined as NADH oxidation or INT reduction over a defined time period.

iHTM cells = experiment: ROS production, sustained oxidative injury by H2O2, iHTM cells; format: cell-based, human; details: then 200 μM H2O2 24 h
Description: The effects of D-Arg-2′,6′-Dmt-Lys-Phe-NH2 on sustained oxidative injury of GTM and HTM cells was examined. Cells were pre-treated with 10^−6, 10^−7, 10^−8M of D-Arg-2′,6′-Dmt-Lys-Phe-NH2 for 1 h, and then incubated with 200 μM H2O2 for 24 h to investigate the protective effect of D-Arg-2′,6′-Dmt-Lys-Phe-NH2 in sustained oxidative stress.

GTM cells = experiment: Mitochondrial membrane potential of GTM cells exposed to H2O2 (TMRM, confocal microscopy / flow cytometry); format: cell-based, human
Source text: Methods to measure mitochondrial membrane potential using TMRM useful in the studies of the present invention have been described by Andrea Rasola and Massimo Geuna, A flow cytometry assay simultaneously detects independent apoptotic parameters, Cytometry 45:151-157, 2001; Mitoprobe™ JC-1 Kit for Flow Cytometry, Molecular Probes, Invitrogen, USA.
The mitochondrial membrane potential (Δψm) of HTM and GTM cells was investigated when those cells were exposed to hydrogen peroxide prior to administration of D-Arg-2′,6′-Dmt-Lys-Phe-NH2. First, the mitochondrial membrane potential was measured using confocal microscopy of cells labeled with tetramethylrhodamine methyl ester (TMRM, 500 nM×30 min) (FIG. 15). The mitochondrial membrane potential was also measured using flow cytometry (FIGS. 16-17) by labeling cells with the mitochondrion-selective probe tetramethylrhodamine methyl ester (TMRM, 500 nM×30 min).
The morphology of GTM cells was investigated when those cells were exposed to D-Arg-2′,6′-Dmt-Lys-Phe-NH2 prior to administration of hydrogen peroxide. […] That is, hydrogen peroxide mediated cell loss and rounding was diminished in cells exposed to D-Arg-2′,6′-Dmt-Lys-Phe-NH2 peptide. The mitochondrial membrane potential (Δψm) of HTM and GTM cells was also investigated when those cells were exposed to D-Arg-2′,6′-Dmt-Lys-Phe-NH2 prior to administration of hydrogen peroxide. The mitochondrial membrane potential was measured using confocal microscopy of cells labeled with tetramethylrhodamine methyl ester (TMRM, 500 nM×30 min) (FIG. 19-21). […] As such, D-Arg-2′,6′-Dmt-Lys-Phe-NH2 provides a protective effect against oxidative stress in GTM cells.

661W cells = experiment: tBHP-induced death of 661W cone cells; format: cell-based, mouse; details: different doses
Description: A cone cell specific line 661W was derived from a mouse retinal tumor. Methods useful in the present studies of 661W cells have been described previously. See generally, Gearóid Tuohy, Sophia Millington-Ward, Paul F. Kenna, Peter Humphries and G. Jane Farrar, Sensitivity of Photoreceptor-Derived Cell Line (661W) to Baculoviral p35, Z-VAD.FMK, and Fas-Associated Death Domain, Investigative Ophthalmology and Visual Science. 2002; 43:3583-3589. These cells were cultured to test the effects of the aromatic-cationic peptides of the invention in preventing or reducing oxidative damage in the cone cells (FIG. 27). First, it was shown that tBHP affected survival of 661W cells (FIG. 27A). Different doses of tBHP were administered to the cells for 3 h. Next, it was shown that different doses of D-Arg-2′,6′-Dmt-Lys-Phe-NH2 reduced tBHP-induced 661W cell death (FIG. 27B).

## D-Arg-2′,6′-Dmt-Lys-Phe-NH2
[1]
  production of ROS: reduced
[2]; 10^−4M
  cytotoxicity: no cytotoxicity
[2]; various concentrations
  viability (LDH assay): does not affect the viability
iHTM cells; 0.01 μM pre-treatment 1 h
  ROS Production: 114.30 ± 3.89 %
iHTM cells; 0.1 μM pre-treatment 1 h
  ROS Production: 82.89 ± 3.70 %
iHTM cells; 1 μM pre-treatment 1 h
  ROS Production: 36.91 ± 1.47 %
GTM cells; GTM cells, co-treatment, 200 μM H2O2, confocal
  decrease in mitochondrial potential (Δψm) elicited by H2O2: dose-dependently inhibited the decrease
GTM cells; GTM cells, co-treatment, 400 μM H2O2, dose-dependent, confocal
  loss of mitochondrial membrane potential caused by H2O2: reduced the loss
GTM cells; cells exposed to hydrogen peroxide prior to administration of peptide (Group A)
  mitochondrial membrane potential: improves
GTM cells; pre-treatment with peptide before hydrogen peroxide (Group B)
  mitochondrial membrane potential: dose-dependently improves
661W cells
  tBHP-induced 661W cell death: reduced
